Where a name gives a salt, the structure may show the parent alone.
Tests used:
Type in all cases: cell-based
[1] = system: CEM cells; assay: Toxicity to mock-infected CEM cells (CC50); conditions: Table III; toxicity to CEM cells; read-out: CC50 CEN
Experimental: (§1) Then 100 μL of the infected cell suspension was transferred to microtiter plate wells and mixed with 100 μL of the appropriate dilutions of the test compounds.
CC50 CEM: CC50 in μM for toxicity to CEM cells.
CC50 CEM: CC50 μM for toxicity to CEM cells

[2] = system: HIV-1; assay: Inhibition of HIV-1 giant cell formation in CEM cells; conditions: Table III; EC50 for inhibition of HIV1 in CEM cells; read-out: HIV1 CBM
Experimental: as §1
HIV 1 CEM: EC50 in μM for inhibition of HIV1 in CEM cells

[3] = system: HIV-2; assay: Inhibition of HIV-2 giant cell formation in CEM cells; conditions: Table III; EC50 for inhibition of HIV-2 in CEM cells; read-out: HIV2 CBM
Experimental: as §1
HIV1 CEM: EC50 in μM for inhibition of […] in CEM cells.
HIV2 CEM: EC50 in μM for inhibition of HIV-2 in CEM cells

[4] = system: MSV; assay: Minimum cytotoxic concentration in MSV assay; design: unit not given here; conditions: Table III
Text: MCC MSV: minimum cytotoxic concentration in MSV essay.

[5] = system: MSV; assay: Inhibition of MSV; conditions: Table III; inhibition of MSV; read-out: EC50 MSV
Experimental: EC50 MSV: EC50 μM for inhibition of MSV

C[C@H](NP(=O)(O)OC[C@@H]1C=C[C@H](n2cnc3c(NC4CC4)nc(N)nc32)C1)C(=O)O [Compound 1540, (1S,4R)-4-(2-amino-6-cyclopropylamino-9H-purin-9-yl)-2-cyclopentene-1-methanol O-(L-alaninyl)-phosphate diammonium salt]
CC50 [1]: 115 µM
EC50 [2]: 1.2 µM
EC50 [3]: 0.95 µM

C[C@H](NP(=O)(OC[C@@H]1C=C[C@H](n2cnc3c(NC4CC4)nc(N)nc32)C1)Oc1ccccc1)C(=O)OCc1ccccc1 (stereo partly drawn) [Compound 1582, (1S,4R)-4-(2-amino-6-cyclopropylamino-9H-purin-9-yl)-2-cyclopentene-1-methanol O-[phenyl-(enzoxy-L-alaninyl)]-phosphate]
CC50 [1]: 12.5 µM
EC50 [2]: 0.083 µM
EC50 [3]: 0.11 µM

COC(=O)[C@@H](C)NP(=O)(OC[C@@H]1C=C[C@H](n2cnc3c(NC4CC4)nc(N)nc32)C1)Oc1ccccc1 (stereo partly drawn) [Compound 1583, (1 S,4R)-4-(2-amino-6-cyclopropyiamino-9H-purin-9-yl)-2-cyclopentene-1-methanol O-[phenyl-(methoxy-D-alaninyl)]-phosphate]
CC50 [1]: 64.3 µM
EC50 [2]: 1.38 µM
EC50 [3]: 4.5 µM

COC(=O)C(C)(C)NP(=O)(OC[C@@H]1C=C[C@H](n2cnc3c(NC4CC4)nc(N)nc32)C1)Oc1ccccc1 (stereo partly drawn) [Compound 1584, (1S,4R)-4-(2-amino-6-cyclopropylamino-9H-purin-9-yl)-2-cyclopentene-1-methanol O-[phenyl-(methoxy-α,adimethylglycinyl)]-phosphate]
CC50 [1]: 8.91 µM
EC50 [2]: 0.067 µM
EC50 [3]: 0.06 µM

COC(=O)[C@H](Cc1ccccc1)NP(=O)(OC[C@@H]1C=C[C@H](n2cnc3c(NC4CC4)nc(N)nc32)C1)Oc1ccccc1 (stereo partly drawn) [Compound 1585, (1,S,4R)-4-(2-amino-6-cyclopropylamino-9H-purin-9-yl)-2-cyclopentee-1-methain O-[phenyl-(methoxy-L-phenylalaninyl)]-phosphate]
CC50 [1]: 36.1 µM
EC50 [2]: 1.42 µM
EC50 [3]: 2.13 µM

COC(=O)CNP(=O)(OC[C@@H]1C=C[C@H](n2cnc3c(NC4CC4)nc(N)nc32)C1)Oc1ccccc1 (stereo partly drawn) [Compound 1588, (1 S,4R)-4-(2-amino-6-cyclopropylamino-9H-purin-9-yl)-2-cyclopentene-1-methanol O-[phenyl-(methoxy-glycinyl)]-phosphate]
CC50 [1]: ≥ 100 µM
EC50 [2]: 1.78 µM
EC50 [3]: 2 µM

COC(=O)C[C@H](NP(=O)(OC[C@@H]1C=C[C@H](n2cnc3c(NC4CC4)nc(N)nc32)C1)Oc1ccccc1)C(=O)OC (stereo partly drawn) [Compound 1589, (1S,4R)-4-(2-amino-6-cyclopropylamin9H-purin-9-yl)-2-cyclopentene-1-methanol O-[phenyl-(L-asparic acid dimethyl ester)]-phosphate]
CC50 [1]: 44.2 µM
EC50 [2]: 1.42 µM
EC50 [3]: 1.9 µM

C[C@H](NP(=O)(OC[C@@H]1C=C[C@H](n2cnc3c(NC4CC4)nc(N)nc32)C1)Oc1ccccc1)C(=O)OC(C)(C)C (stereo partly drawn) [Compound 1645, (1S,4R)-4-(2-amino-6-cyclopropylamino-9H-purin-9-yl)-2-cyclopentene-1-methanol O-(phenyl-tertbutyloxy-L-alaninyl)-phosphate]
CC50 [1]: 33 µM
EC50 [2]: 3.7 µM
MCCMSV [4]: >20
EC50 [3]: 6 µM
EC50 [5]: 11.7 µM

CCCOC(=O)[C@H](C)NP(=O)(OC[C@@H]1C=C[C@H](n2cnc3c(NC4CC4)nc(N)nc32)C1)Oc1ccccc1 (stereo partly drawn) [Compound 1646, (1S,4R)-4-(2-amino-6-cyclopropylamino-9H-purin-9-Sl)-2-cyclopentene-1-methanol O-Phenyl-(n-propoxy-L-alaninyl)-phosphate]
CC50 [1]: 9 µM
EC50 [2]: 0.093 µM
MCCMSV [4]: >4
EC50 [3]: 0.12 µM
EC50 [5]: 2 µM

CCCCOC(=O)[C@H](C)NP(=O)(OC[C@@H]1C=C[C@H](n2cnc3c(NC4CC4)nc(N)nc32)C1)Oc1ccccc1 (stereo partly drawn) [Compound 1647, (1S,4R)-4-(2-amino-6-cyclopropylamino-9H-purin-9-yl)-2-cyclopentene-1-methanol O-Phenyl-(n-butoxy-L-alaninyl)-phosphate]
CC50 [1]: 8.23 µM
EC50 [2]: 0.085 µM
MCCMSV [4]: >4
EC50 [3]: 0.17 µM
EC50 [5]: 0.62 µM

CC(C)OC(=O)[C@H](C)NP(=O)(OC[C@@H]1C=C[C@H](n2cnc3c(NC4CC4)nc(N)nc32)C1)Oc1ccccc1 (stereo partly drawn) [Compound 1661, (1S,4R)-4-(2-amino-6-cyclopropylamino-9H-purin-9-yl)-2-cyclopentene-1-methanol O-Phenyl-(i-propoxy-L-alaninyl)-phosphate]
CC50 [1]: 9.18 µM
EC50 [2]: 0.5 µM
MCCMSV [4]: ≧20
EC50 [3]: 0.85 µM
EC50 [5]: 2.75 µM

CC(C)COC(=O)[C@H](C)NP(=O)(OC[C@@H]1C=C[C@H](n2cnc3c(NC4CC4)nc(N)nc32)C1)Oc1ccccc1 (stereo partly drawn) [Compound 1672, (1S,4R)-4-(2-:amino-6-cyclopropylamino-9H-purin-9-yl-2-cyclopentene-1-methanol O-(phenyl (2-methylpropyl)oxyalaninyl phosphate)]
CC50 [1]: 14.4 µM
EC50 [2]: 0.09 µM
MCCMSV [4]: >4
EC50 [3]: 0.1 µM
EC50 [5]: 1.98 µM

C[C@H](NP(=O)(OC[C@@H]1C=C[C@H](n2cnc3c(NC4CC4)nc(N)nc32)C1)Oc1ccccc1)C(=O)OCC(C)(C)C (stereo partly drawn) [Compound 1673, (1S ,4R)-442-amino6-cyclopropylamino-9H-purin-9-y)-2-cyclopentene-1-methanol O-(phenyl (2,2-dimethylpropyl)oxyalaninyl phosphate)]
CC50 [1]: 8.07 µM
EC50 [2]: 0.15 µM
MCCMSV [4]: >4
EC50 [3]: 0.18 µM
EC50 [5]: 2.92 µM

CC(C)CCOC(=O)C(C)NP(=O)(OC[C@@H]1C=C[C@H](n2cnc3c(NC4CC4)nc(N)nc32)C1)Oc1ccccc1 (stereo partly drawn) [Compound 1674, (1S,4R)-4-(2-amino-6-cyclopropylamino-9H-purin-9-yl)-2-cyclopentene-1-methanol O-(phenyl (3-methylbutyl)oxyalaninyl phosphate)]
CC50 [1]: 10.7 µM
MCCMSV [4]: >4
EC50 [3]: 0.25 µM
EC50 [5]: 2.04 µM

CCCCCOC(=O)[C@H](C)NP(=O)(OC[C@@H]1C=C[C@H](n2cnc3c(NC4CC4)nc(N)nc32)C1)Oc1ccccc1 (stereo partly drawn) [Compound 1706, (1S,4R)-4-(2-amino-6-cyclopropylamino-9H-purin-9-yl)-2-cyclopentene-1-methanol 0-Phenyl-(n-pentyloxy-L-alaninyl)-phosphate]
CC50 [1]: 16.4 µM
EC50 [2]: 0.065 µM
MCCMSV [4]: >4
EC50 [3]: 0.08 µM
EC50 [5]: 1.45 µM

C[C@H](NP(=O)(OC[C@@H]1C=C[C@H](n2cnc3c(NC4CC4)nc(N)nc32)C1)Oc1ccccc1)C(=O)OC1CCCCC1 (stereo partly drawn) [Compound 1707, (1S,4R)-4-(2-amino-6-cyclopropylamino-9H-purin-9-yl)-2-cyclopeniene-1-methanol O-Phenyl-(c-hexyloxy-L-alaninyl)-phosphate]
CC50 [1]: 10.2 µM
EC50 [2]: 0.33 µM
MCCMSV [4]: >4
EC50 [3]: 0.25 µM
EC50 [5]: 2.84 µM

C[C@H](NP(=O)(OC[C@@H]1C=C[C@H](n2cnc3c(NC4CC4)nc(N)nc32)C1)Oc1ccccc1)C(=O)OCC1CCCCC1 (stereo partly drawn) [Compound 1708, (1S,4R)-4-(2-amino-6-cyclopropylamino-9H-purin-9-yl)-2cyclopentene-1-methanol O-Phenyl-(cyclobexane-methoxy-L-alaninyl)-phosphate]
CC50 [1]: 15.1 µM
EC50 [2]: 0.15 µM
MCCMSV [4]: >4
EC50 [3]: 0.16 µM
EC50 [5]: 1.3 µM

COC(=O)CC[C@H](NP(=O)(OC[C@@H]1C=C[C@H](n2cnc3c(NC4CC4)nc(N)nc32)C1)Oc1ccccc1)C(=O)OC (stereo partly drawn) [Compound 1749, (1S,4R)-4-(2-amino6-cyclopropylamino-9H-purin-9-yl)-2-cyclopentene-1-methanol O-(phenyldimethoxy-L-glutamyl phosphate)]
CC50 [1]: 36.9 µM
EC50 [2]: 3.5 µM
EC50 [3]: 5.33 µM

COC(=O)[C@H](Cc1c[nH]c2ccccc12)NP(=O)(OC[C@@H]1C=C[C@H](n2cnc3c(NC4CC4)nc(N)nc32)C1)Oc1ccccc1 (stereo partly drawn) [Compound 1750, (1S,4R)-4-(2-amino-6-cyclopropylamino-9H-purin-9-yl)-2cyclopentene-1-methanol O-(phenylmethoxy-L-tryptophanyl phosphate)]
CC50 [1]: 18.3 µM
EC50 [2]: 3 µM
EC50 [3]: 3.67 µM

CC[C@H](C)[C@H](NP(=O)(OC[C@@H]1C=C[C@H](n2cnc3c(NC4CC4)nc(N)nc32)C1)Oc1ccccc1)C(=O)OC (stereo partly drawn) [Compound 1751, (1S,4R)-4-(2-amino-6-cyclpropylamino-9H purin-9-yl)-2-cyclopentene-1-methanol O-(phenylmethoxy-L-isoleucinyl phosphate)]
CC50 [1]: 24.2 µM
EC50 [2]: 7 µM
EC50 [3]: 5.33 µM

C[C@H](NP(=O)(OC[C@@H]1C=C[C@H](n2cnc3c(NC4CC4)nc(N)nc32)C1)Oc1ccccc1)C(=O)OC1CCCCCC1 (stereo partly drawn) [Compound 1752, (1S,4R)-4-(2-amino-6-cyclopropylamino-9-H-purin-9-yl)2-cyclopentene-1-methanol O-(phenyl (cycloheptanyl)oxyalaninyl phosphate)]
CC50 [1]: 6.32 µM
EC50 [2]: 1.3 µM
EC50 [3]: 1.05 µM

— patent US6638919B2, “Antiviral purine derivatives” (University College Cardiff Consultants Limited, priority 2001, dated 2003)
